In patent US9783535B2 (priority 2012, dated 2017):

Columns and labels:
a3b4 nAChRs = a3b4 nAChRs (Homo sapiens, UniProt P30926+P32297); test: Relative potency at a3b4 nAChRs, epibatidine-induced calcium response; format: cell-based
Method: The HEK293 (a3b4, a4b2 and a7) and SH-SY5Y cell lines (a3b4) expressing nAChRs are used. Validated assays optimized with respect to sensitivity, dynamic range, signal intensity and stability for chemical probe validation and SAR refinement are used.
Nicotinic functional assays are performed using the Molecular Devices FLIPR® Calcium 5 Assay Kit. HEK293 cells overexpressing α3β4, α4β2 or α7 (50,000 cells per well in 100 μl growth media) and are plated in clear bottom black walled 96-well microplates and incubated for 24-48 hours at 37° C., 5% CO2 until a 80-90% confluent monolayer is formed. On the day of the assay, 100 μl of Calcium 5 Dye is added to each well. Following addition of dye, cells are incubated at 25° C. for 60 minutes. Following dye loading, 50 μl of a 5× solution of reference or test compound of appropriate concentration range (0.01-30 μM), prepared in 20 mM HEPES pH 7.4 in HBSS, is added to each well. Plates are then transferred to the Molecular Devices Flexstation® which transfers 50 μL of a 5× solution (500 nM) of epibatine to each well to initiate the Ca+2 flux. Additional wells (in quadruplicate) are prepared with no added test or reference ligand for measurement of 100% flux. The RFU (relative fluorescence units) in the presence of the test or reference compounds is then expressed on the percent scale. The percent inhibition of epibatidine induced Ca^+2 flux is calculated as follows: % inhibition=100%−% RFU (relative fluorescence units). The IC50 values for reference and test compounds are obtained by fitting normalized RFU data using Graphpad Prism software.

[1] = CNS penetration across the blood brain barrier; parameters: species or system mice; settings: mouse, in vivo
Method: Mice are dosed with compounds. Brain to blood ratios are determined by HPLC and LC/MS/MS analysis following oral administration of the test compounds in mice.

[2] = tested on: panel of over 50 receptors, transporters, ion channels, second messengers, growth factor receptors and enzymes; test: Binding panel at physiologically relevant concentrations
Excerpt: The association between cigarette smoking and the presence and severity of suicidal behavior across major psychiatric disorders may be related to lower brain serotonin function in smokers with depression).

[3] = molecular target: T1, kappa opioid receptor (kOR) (Homo sapiens, UniProt P41145); test: Kappa opioid receptor binding; settings: read-out: Affinity at kappa opioid receptor
T1 construct: expressed in transfected cells; host or cells: CHO or HEK293 (membranes)
Method: Established radioligand binding methods are used to evaluate the ability of the compounds to block reuptake of scrotonin and dopamine in membrane preparations of synaptosomes. Equilibrium binding affinity values is determined for each compound at opioid receptors (μ and κ subtypes) and biogenic amine transporters (DAT and SERT). Where possible, binding experiments utilize membranes derived from CHO or HEK293 cells engineered to overexpress the human form of the receptor or transporter of interest. Radiolabeling of opioid receptors, and biogenic amine transporters utilizes conventional radioligands, buffers and incubation conditions according to published assays.
Test compounds, reference compounds and the radioligand (Kd value) are added to binding buffer. Assays are run with test or reference compound over a range of concentration (0.0001-10 uM) in triplicate using a 96-well sample plate containing radioligands specific for the target receptor or transporter. […] Bound radioactivity is counted in a Microbeta scintillation counter. Total bound radioactivity is estimated from triplicate wells containing no test or reference compound, together with nonspecific binding and filter blanks. The average bound radioactivity in the presence of the test compounds is expressed % inhibition=100%−% radioactivity bound. […]

Sequence of a3b4 nAChRs (P32297 32-505): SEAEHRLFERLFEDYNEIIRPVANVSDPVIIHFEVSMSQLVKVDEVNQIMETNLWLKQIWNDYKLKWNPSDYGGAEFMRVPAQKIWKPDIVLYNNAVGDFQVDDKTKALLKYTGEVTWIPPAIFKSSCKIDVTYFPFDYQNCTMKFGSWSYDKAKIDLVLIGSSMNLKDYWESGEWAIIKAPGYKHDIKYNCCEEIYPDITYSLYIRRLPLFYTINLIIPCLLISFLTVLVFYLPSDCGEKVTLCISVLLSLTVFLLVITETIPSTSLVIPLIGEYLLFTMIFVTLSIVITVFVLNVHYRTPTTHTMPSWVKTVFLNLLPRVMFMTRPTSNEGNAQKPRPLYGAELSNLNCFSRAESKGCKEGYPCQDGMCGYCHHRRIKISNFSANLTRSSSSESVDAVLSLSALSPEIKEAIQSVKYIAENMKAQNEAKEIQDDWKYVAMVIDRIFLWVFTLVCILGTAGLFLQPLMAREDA
Sequence of a3b4 nAChRs (P30926 22-498): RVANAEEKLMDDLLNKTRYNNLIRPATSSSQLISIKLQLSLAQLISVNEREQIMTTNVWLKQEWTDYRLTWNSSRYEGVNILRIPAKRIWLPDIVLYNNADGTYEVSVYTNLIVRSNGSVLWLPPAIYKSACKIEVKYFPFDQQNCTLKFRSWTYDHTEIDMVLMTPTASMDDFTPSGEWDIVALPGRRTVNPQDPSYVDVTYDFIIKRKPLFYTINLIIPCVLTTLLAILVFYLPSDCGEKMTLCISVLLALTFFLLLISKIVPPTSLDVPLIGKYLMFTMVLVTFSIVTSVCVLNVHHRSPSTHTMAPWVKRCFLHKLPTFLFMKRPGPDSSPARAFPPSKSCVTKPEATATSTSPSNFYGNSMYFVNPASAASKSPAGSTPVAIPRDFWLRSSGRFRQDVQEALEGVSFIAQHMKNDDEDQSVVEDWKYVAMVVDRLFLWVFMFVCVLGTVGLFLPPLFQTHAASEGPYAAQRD
T1 sequence (P41145 whole entry): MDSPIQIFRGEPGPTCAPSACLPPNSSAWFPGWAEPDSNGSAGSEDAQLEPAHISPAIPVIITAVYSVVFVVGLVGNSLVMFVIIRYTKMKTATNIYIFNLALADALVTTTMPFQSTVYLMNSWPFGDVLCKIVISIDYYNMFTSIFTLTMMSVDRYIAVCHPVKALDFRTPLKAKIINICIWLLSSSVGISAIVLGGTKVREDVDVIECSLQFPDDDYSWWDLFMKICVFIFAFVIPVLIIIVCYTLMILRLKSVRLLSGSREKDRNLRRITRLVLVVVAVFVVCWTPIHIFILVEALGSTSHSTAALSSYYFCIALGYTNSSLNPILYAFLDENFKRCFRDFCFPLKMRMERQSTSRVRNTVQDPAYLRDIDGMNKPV

Row | Compound | Potency as inhibitor of the epibatidine-induced calcium response compared with 18-MC and noribogaine (a3b4 nAChRs; a3b4 nAChRs) | Crossing of the BBB and brain concentration [1] | Targets bound in the panel [2] | Ki [3] [µM] | IC50 of the reference 18-MC behind the ratio (a3b4 nAChRs; a3b4 nAChRs, bracketed value in Table 4) [µM] | Ratio from 18-MC (a3b4 nAChRs; relative potency at a3b4 nAChRs, 18-MC = 1)
1 | Ibogaine | more potent inhibitors than 18-MC (18-methoxycoronaridine) and noribogaine |  |  |  |  | 
2 | CC[C@H]1CC2C[C@H]3c4[nH]c5ccc(O)cc5c4CCN(C2)C13 [Noribogaine, 12-hydroxyibogamine] |  | cross the BBB and reach micromolar concentrations in brain | only bound to SERT, DAT, mu and kappa opioid receptors | 1 |  | 
3 | COCC[C@H]1CC2CN3CCc4c([nH]c5ccccc45)[C@](C(=O)OC)(C2)[C@H]13 [Compound 18-MC, 18-methoxycoronaridine] |  | cross the BBB and reach micromolar concentrations in brain |  |  | 4 | 1
